# Laboratory results published in PubChem BioAssay AID588612 (The Scripps Research Institute Molecular Screening Center, 2011).
# Target: Mitogen-activated protein kinase 1 (Homo sapiens) (UniProt P28482)
# Assay: phospho-ERK1/2 protein level change, either direction, late-stage follow-up, counter-screen for KLF5 inhibitor project, DLD1 cells, chemiluminescent western blot, powder samples (AID 588612)
# Details: DLD-1 cells, p-ERK1/2 western blot, 24 h; at 10 µM
# Chain of Mitogen-activated protein kinase 1 (Homo sapiens) (P28482 whole entry, looked up): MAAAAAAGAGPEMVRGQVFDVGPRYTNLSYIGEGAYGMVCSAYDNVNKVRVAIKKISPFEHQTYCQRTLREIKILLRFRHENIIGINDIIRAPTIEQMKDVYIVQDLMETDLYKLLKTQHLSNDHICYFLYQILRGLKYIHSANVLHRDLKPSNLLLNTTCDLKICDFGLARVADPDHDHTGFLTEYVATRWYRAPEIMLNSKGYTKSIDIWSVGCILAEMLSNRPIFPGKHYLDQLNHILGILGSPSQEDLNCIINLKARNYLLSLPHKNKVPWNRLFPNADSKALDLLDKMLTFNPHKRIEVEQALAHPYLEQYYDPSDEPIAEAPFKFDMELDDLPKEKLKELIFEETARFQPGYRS
row,Structure (SMILES),fold change
1,CN(C(=O)CNC(=O)/C=C/c1cccc(Cl)c1)C1CCS(=O)(=O)C1 (stereo not drawn),9.88
2,CN(C(=O)CNC(=O)/C=C/c1cccc(Cl)c1)C1CCS(=O)(=O)CC1,9.41
3,CN(C(=O)COC(=O)/C=C/c1cccc([N+](=O)[O-])c1)C1CCS(=O)(=O)C1 (stereo not drawn),11
